These results are taken from article PMC12067093, “Discovery and optimisation of a covalent ligand for TRIM25 and its application to targeted protein ubiquitination” (Chemical Science, 2025).

Test [1] concerns the target T1, TRIM25 (full-length, His10-TRIM25) (Homo sapiens, UniProt Q14258).
T1 construct: Full-length recombinant TRIM25 was pre-treated with either DMSO, 10 or 11; made in house; host or cells: Sf9 insect cells
As to the kind of experiment: In vitro TRIM25 auto-ubiquitination time course assay. It counts as biochemical. The settings on record: TRIM25 4 μM pre-treated with compound 50 μM for 16 h at 4 °C, versus DMSO; assay 60 min at 30 °C. As to the method:
1 Glutathione reactivity assay
2 Glutathione consumption assay was outsourced to Cyprotex, where the experimental
3 procedure was optimised and performed. 10 mM DMSO stocks of fragments 1 and 2,
5 diluted with 5 mM glutathione in PBS. The reaction was shaken before incubation at
6 40 °C. The reaction mixture was analysed via UPLC-UV-MS up to eight times across
7 24 hours, compared to known reference compounds and samples of each compound
8 in distilled water. UPLC conditions: flow rate 800 µL/min on an Acquity UPLC BEH
9 C18 1.7 µm 2.1 x 50 mm column, with column temperature 37°C, monitored at 210 to
10 350 nm. Samples were run using a 2 min gradient elution from 97% mobile phase A
11 to 0% mobile phase A, where mobile phase A was 0.1% formic acid in H2O, and mobile
12 phase B was 0.1% formic acid in 100% MeCN. MS conditions: single quad, ESI+, with
13 scan range of 50 – 1000 Da. […]
15 (k) for each compound was determined from the slope of a linear regression fit for a […]
17 differential for the eight time points. t1/2 values were calculated as follows: t1/2 = 0.693/k. […]
2 indicates the sample taken prior to the addition of ATP. Samples were analysed by […]
16 added directly to the ubiquitination assay reaction mixture. Samples were analysed as […]
18 which was detected by anti-rabbit-HRP secondary antibody (Dako, P0399, 1:2000). […]
21 analysed in ImageLab (Bio-Rad). […]

The target in test [2] is T2, TRIM25 (peptide FTYC^498SQVLGLHC^506YK) (Homo sapiens, UniProt Q14258).
T2 construct: endogenous in cells; host or cells: THP-1
T2 sequence (Q14258 whole entry): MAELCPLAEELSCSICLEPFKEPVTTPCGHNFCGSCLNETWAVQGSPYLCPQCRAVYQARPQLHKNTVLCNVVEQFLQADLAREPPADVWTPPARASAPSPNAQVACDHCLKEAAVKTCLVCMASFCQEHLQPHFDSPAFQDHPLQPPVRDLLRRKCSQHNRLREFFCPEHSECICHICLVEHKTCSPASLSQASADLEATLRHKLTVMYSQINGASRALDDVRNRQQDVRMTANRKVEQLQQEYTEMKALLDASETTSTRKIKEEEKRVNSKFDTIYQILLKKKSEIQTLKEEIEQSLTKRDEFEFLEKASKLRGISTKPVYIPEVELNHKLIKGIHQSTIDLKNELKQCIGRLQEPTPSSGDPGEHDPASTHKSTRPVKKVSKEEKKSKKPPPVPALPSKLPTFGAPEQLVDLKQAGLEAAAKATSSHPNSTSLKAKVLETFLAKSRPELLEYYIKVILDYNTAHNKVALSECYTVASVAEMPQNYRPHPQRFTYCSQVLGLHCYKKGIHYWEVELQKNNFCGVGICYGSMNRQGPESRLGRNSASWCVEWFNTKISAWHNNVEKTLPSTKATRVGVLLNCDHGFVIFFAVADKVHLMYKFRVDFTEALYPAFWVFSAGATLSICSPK
Nature of the test: IA-DTB competitive chemoproteomics in live THP-1 cells. It counts as cell-based, 9606. The note with it: 4 h at 37 °C, compound tested at 50 μM and 10 μM, significant if FC ≤ 0.25, p-value ≤ 0.01.

The structures appear in SMILES notation.

T1 sequence (Q14258 whole entry): as above

Regarding `Cc1cc(C(=O)N2CCCN(C(=O)CCl)CC2)ccc1-c1ccccc1` [Compound 10], the “rate of TRIM25 auto-ubiquitination” value in test [1] is listed as “significantly increased”. In addition, the “TRIM25 engagement in cells” value in test [2] is given as “engaged TRIM25 in cells at the PRYSPRY domain at 50 μM”.
In the same order, the values of `CC1Cc2ccccc2N1C(=O)C1CCCN(C(=O)CCl)C1` (stereo not shown) [Compound 11] are “significantly increased” and “not observed to engage TRIM25”.
